Data: patent publication US10111841B2, “Stabilization of alcohol intoxication-induced cardiovascular instability” (UNIVERSITY OF SOUTH FLORIDA, priority 2015, dated 2018)
One block for each molecule: values may come before it.

How the values were obtained:
[1] = test system: endothelial barrier; conditions: in vitro; cited from earlier work
[2] = target: S1P1R (Homo sapiens, UniProt P21453); conditions: cited from earlier work
[3] = test system: HUVEC; test: TER of HUVEC monolayers on gold-plated electrodes (endothelial barrier function); assay type: cell-based; conditions: for course of barrier function (TER) over time / restoration of barrier function (TER) after alcohol: 50 mM alcohol, 10 min later 1 μM compound
Description: (§1) FIGS. 3A-3D. Alcohol-induced endothelial barrier dysfunction in cultured endothelial cell monolayers. FIG. 3A: Time-course of changes in transepithelial electrical resistance (TER) of HUVEC monolayers following application of vehicle (water) or 20, 50, or 100 mM alcohol. FIG. 3B: Time course of alcohol-induced changes in TER in HMVEC-C monolayers. FIG. 3C: The mean maximum alcohol-induced changes in TER in HUVEC. FIG. 3D: Mean maximum alcohol-induced changes in TER in HMVEC-c. *P<0.05 and **P<0.01 vs. vehicle. One-way ANOVA followed by Dunnett's test, all groups, N=4.
FIGS. 6A and 6B. Alcohol-induced barrier dysfunction in HUVEC was resolved faster by S1P treatment. HUVEC were cultured to confluence on gold-plated electrodes and then serum starved for 1-2 hours. Following 30 minutes of baseline TER measurements, alcohol was added to the wells to a final concentration of 50 mM for 5 minutes before treatment with 1 μM of […] or vehicle. FIG. 6A: Time course of changes in HUVEC monolayer TER in response to 50 mM alcohol, followed by addition of 1 μM S1P 5 min later, or vehicle (PBS) 5 min later. FIG. 6B: Mean recovery time for HUVEC, i.e., time to return to baseline TER, starting from the time point immediately preceding alcohol was added. **P<0.01 versus alcohol/vehicle group. Statistical analysis by t-test; all HUVEC groups, N=8.
(§2) FIGS. 10A-10C. Selective S1P1R agonist FTY720-phosphonate ameliorates alcohol-induced microvascular hyperpermeability. FTY720 and its analogs reverse alcohol-induced disruption of EC monolayer barrier function. In all panels, 50 mM alcohol or vehicle was applied first, and 10 min later, 1 μM of FTY720 (FIG. 10A) FTY720-P (FIG. 10B) or FTY720 (S)-phosphonate (FIG. 10C) or vehicle was added. […] A minimum of N=4 monolayers in each group.
(§3) The direct impact of alcohol on endothelial barrier function was tested using cultured HUVEC or HMVEC-c confluent monolayers grown on gold-plated electrodes. Thirty minutes of baseline transepithelial electrical resistance (TER) measurements were recorded before the cells were treated with alcohol at final bath concentrations of 20, 50 or 100 mM. Alcohol was added directly into the MEDIA within the wells. […] The decrease in TER was alcohol concentration-dependent with high alcohol concentrations eliciting a larger drop in TER. The maximal decline in TER from baseline was significant for the 50 and 100 mM concentrations in both HUVEC (FIG. 3C) and HMVEC-c (FIG. 3D).
The inventors next set out to determine if S1P could similarly reduce the recovery time for TER to be reestablished to baseline in HUVEC pretreated with alcohol. Following 30 minutes of baseline TER measurements, alcohol was added to the wells to a final concentration of 50 mM for 5 minutes before treatment with 1 μM S1P or vehicle.
(§4) FIGS. 10A-C show TER data. TER is an index of the barrier function of endothelial cells. […] Unlike S1P, which restored the barrier in about 5 min (see FIG. 6A), FTY720 restored barrier function occurred gradually (FIG. 10A).

[4] = multiple sclerosis patients; cited from earlier work
[5] = 0.5 mg/kg; anesthetized rats; several hours after administration; cited from earlier work
[6] = swine, uncontrolled hemorrhage; cited from earlier work
[7] = test system: microvascular hyperpermeability; conditions: in vivo; cited from earlier work
[8] = combined hemorrhage and trauma (laparotomy), anesthetized rats; cited from earlier work
[9] = test system: HMVEC-c; test: TER of HMVEC-c / cardiac microvascular EC monolayers; assay type: cell-based
Description: as §1, §2, §3, §4

[10] = test system: mesenteric microcirculation; test: IVM of FITC-albumin extravasation in the rat mesenteric microcirculation; assay type: in vivo, Sprague-Dawley rats
Description: FIGS. 2A-2D. […] FIG. 2C: Mean maximum change in IOI in the extravascular space from the initial baseline just after FITC-albumin was injected i.v. to the end of the IVM experiment. FIG. 2D: Mean mesenteric arteriolar diameter in the observed microvascular beds. *P<0.05, alcohol vs. water. Mann-Whitney U-test, N=5 rats studied for the water group, and N=8 rats studied for the alcohol group.
FIGS. 7A-7C. […] White circles highlight areas of FITC-Albumin fluorescence in the surrounding interstitium. White arrows indicate areas of FITC-Albumin accumulation resulting in hotspots of fluorescence within and just outside the vessel walls. […] FIG. 7C: Mean maximum change in IOI in the extravascular space, from the initial baseline just after FITC-albumin was injected i.v. **P<0.01, Alcohol-Sham. Statistical analysis by t-test; both treatment groups, N=8.
S1P has been used to reduce the permeability of rat microvessels to BSA, however, only one study has been performed in intact animals. Using the inventors' established method of observing hyperpermeability in the rat mesentery, the ability of S1P to abolish or attenuate the enhanced extravasation of FITC-albumin caused by acute alcohol intoxication was examined. After receiving a 2.5 g/kg bolus of alcohol and allowed free roaming for 30 minutes, rats were prepared for IVM and administered S1P to a final concentration of 2 μM within the FITC-albumin infusion. This provided an estimated final plasma concentration of S1P in the rats of 0.2 μM.

[11] = MAP during fixed-pressure hemorrhage and resuscitation (HSR) protocol; assay type: in vivo, Sprague-Dawley rats
[12] = MAP during IVM following HSR; assay type: in vivo, Sprague-Dawley rats; conditions: alcohol-intoxicated rats; 0.1 mg/kg S1P during resuscitation; 30 minutes IVM; only 3 experiments
Description: The time-course of changes in MAP of Sprague-Dawley rats treated with alcohol, water, or alcohol and 0.1 mg/kg S1P within the resuscitation fluid during the IVM stage.
As before, immediately following completion of the HSR protocol the animal was anesthetized and prepped for IVM. During IVM, MAP is continually monitored. […] At the time of writing this, only 3 IVM experiments were performed with alcohol-intoxicated animals that received S1P during resuscitation.

[13] = Blood alcohol concentration after intragastric alcohol; conditions: 30 minutes after 2.5 g/kg alcohol vs time-matched water-treated groups
Description: Blood alcohol concentrations (BAC) 30 minutes after administration of 2.5-g/kg alcohol or isovolumic water. Intragastric catheters were implanted 2-3 days before the day of experiments. Male Sprague-Dawley rats were administered 2.5 g/kg alcohol or isovolumic water and allowed to freely roam in their cages for 30 minutes. Following 30 minutes incubation, experimental protocols were begun and blood samples obtained.
Administration of a 2.5-g/kg dose of alcohol was performed via an intragastric catheter that was implanted 2-3 days before the day of experiment. The animals were allowed to roam freely for 30 minutes after administration.

[14] = test system: mesenteric microcirculation
Description: FIG. 5A: Representative fluorescent image of the mesenteric microcirculation of a rat that received water and undergoing sham-HSR illustrating that FITC-albumin was present mainly inside the lumen of microvessels. […] FIG. 5C: Representative image of the mesenteric microcirculation of a water-treated rat that underwent HSR. FIG. 5D: Representative image of the mesenteric microcirculation of an alcohol-treated rat that underwent HSR.
Immediately following completion of the HSR protocol the animal was anesthetized and prepped for IVM. […] This extravasation was quantified by calculating the mean 60-minute RM.

[15] = cardiac microvascular EC, 50 mM alcohol, 10 min later 1 μM compound
[16] = alcohol-intoxicated rats (2.5 g/kg), S1P in the FITC-albumin infusion, estimated plasma 0.2 μM
[17] = 2.5 g/kg alcohol vs water-treated animals

Chain of S1P1R (P21453 whole entry): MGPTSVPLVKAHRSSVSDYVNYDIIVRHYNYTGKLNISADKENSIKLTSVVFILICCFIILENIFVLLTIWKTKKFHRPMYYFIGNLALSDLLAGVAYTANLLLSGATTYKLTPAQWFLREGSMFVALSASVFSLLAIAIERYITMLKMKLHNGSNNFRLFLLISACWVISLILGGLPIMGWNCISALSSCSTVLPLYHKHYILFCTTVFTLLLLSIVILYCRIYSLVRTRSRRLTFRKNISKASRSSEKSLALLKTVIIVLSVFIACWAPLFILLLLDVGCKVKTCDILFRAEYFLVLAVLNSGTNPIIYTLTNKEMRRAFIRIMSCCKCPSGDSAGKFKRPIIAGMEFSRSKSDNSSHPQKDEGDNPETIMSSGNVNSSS

SMILES: CCCCCCCCc1ccc(CC[C@@](N)(CO)CCP(=O)(O)O)cc1 [FTY720 (S)-phosphonate, (S)-3-amino-3-(hydroxymethyl)-5-(4-octylphenyl)pentylphosphonic acid]
- endothelial barrier function [1]: longer-lasting endothelial barrier enhancement
- S1P1R turnover [2]: limits this S1P1R turnover
- course of barrier function (TER) over time [3]: sustained enhancement of barrier integrity over time
- restoration of barrier function (TER) after alcohol [3]: rapid rescue of barrier function, rising above baseline levels

SMILES: CCCCCCCCc1ccc(CCC(N)(CO)CO)cc1 [FTY720, 2-amino-2-(4-octylphenethyl)propane-1,3-diol]
- rate of clinical relapses [4]: reduce the rate of clinical relapses
- baseline blood pressure [5]: reduced baseline blood pressure
- survival [6]: improved survival
- endothelial barrier function [1]: enhances endothelial barrier function
- S1P1R turnover [2]: can cause proteasome-mediated turnover of S1P1R
- course of barrier function (TER) over time [3]: gradually
- restoration of barrier function (TER) after alcohol [3]: accelerated its restoration to the baseline level
- VEGF- and histamine-induced microvascular hyperpermeability [7]: reduces
- hypotension and lung injury [8]: reduced

SMILES: CCCCCCCCc1ccc(CC[C@](N)(CO)COP(=O)(O)O)cc1 [FTY720-P]
- course of barrier function (TER) over time [9, 15]: overshoot over the original baseline, followed by a gradual drop over time
- restoration of barrier function (TER) after alcohol [9, 15]: much more rapid elevation in barrier function

SMILES: CCCCCCCCCCCCC/C=C/[C@@H](O)[C@@H](N)COP(=O)(O)O [S1P, sphingosine-1-phosphate]
- extravasation of FITC-albumin [10, 16]: marked reduction
- mean IOI in the extravascular space vs FITC-albumin infusion alone [10, 16]: significantly lower
- TER time course after alcohol ([3]; 50 mM alcohol for 5 minutes, then 1 μM S1P): rapidly rise to the previously established baseline levels
- reestablishing baseline TER faster than cells treated with vehicle (recovery time) ([3]; 50 mM alcohol for 5 minutes, then 1 μM S1P or vehicle): about 30 minutes
- time to restore the barrier ([3]; after alcohol, FIG. 6A): about 5 min
- recovery of MAP during resuscitation ([11]; alcohol-intoxicated rats, 0.1 mg/kg S1P within lactated Ringer's resuscitation fluid): same impaired recovery of MAP
- MAP higher than alcohol-intoxicated animals that received standard fluids [12]: 20-25 mm Hg

- mean maximal change in IOI in the extravascular space adjacent to postcapillary venules ([10]; 2.5 g/kg alcohol intragastric vs water control rats): significantly higher
- mean arteriolar diameter of third-order arterioles ([10]; 2.5 g/kg alcohol vs control groups): no significant difference
- maximal decline in TER from baseline ([9]; HMVEC-c, 50 and 100 mM alcohol vs vehicle): significant
- TER of the monolayer ([9]; HMVEC-c, alcohol 20, 50 or 100 mM): immediate decline in the TER
- BAC [13]: significantly higher
- maximal decline in TER from baseline ([3]; 50 and 100 mM alcohol vs vehicle): significant
- TER of the monolayer ([3]; alcohol 20, 50 or 100 mM): immediate decline in the TER
- recovery of MAP during the resuscitation phase ([11]; 2.5 g/kg alcohol vs water): significantly blunted
- baseline MAP [11, 17]: significantly lower
- total blood volume shed to achieve the 40-60 mm Hg target MAP (TBR) [11, 17]: significantly less
- mean 60-minute IOI (printed RN) in the extravascular space ([14]; alcohol-HSR rats vs water-HSR rats): significantly higher
- mean 60-minute IOI in the extravascular space ([14]; alcohol-sham rats vs water-sham rats): significantly higher
SMILES: CCO [alcohol]
